Measurements: US20100267561A1, “HERBICIDAL PYRIDAZINONE DERIVATIVES” (priority 2007, published 2010)

How the values were obtained:
Assay type in all cases: in vivo
wild oat (Avena fatua) = assay: Test B pre-/postemergence plant response; conditions: for Oat, Wild plant response rating: 8 g ai/ha
How it was run: (§1)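 Seeds were sown and sprayed preemergence, while plants at 2 to 18 cm (1- to 4-leaf stage) got postemergence sprays. Compounds were formulated in a non-phytotoxic solvent mixture with surfactant. After 13 to 15 days in a greenhouse, injury was rated visually against untreated controls, 0 (no effect) to 100 (complete control).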

[1] = tested on: wheat (Triticum aestivum); assay: Test B pre-/postemergence plant response; conditions: for Wheat plant response rating: 8 g ai/ha
How it was run: as §1

[2] = tested on: yellow nutsedge (Cyperus esculentus); assay: Test B pre-/postemergence plant response; conditions: for Nutsedge, Yellow plant response rating: 8 g ai/ha
How it was run: as §1

[3] = tested on: winter barley (Hordeum vulgare); assay: Test B postemergence plant response; conditions: for Barley plant response rating: 8 g ai/ha, postemergence, 0-100 scale; for Plant response rating, Barley: Postemergence, scale 0 to 100, 0 no effect, 100 complete control
How it was run: (§2)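 Test compounds were applied postemergence to plants 2 to 18 cm tall (1- to 4-leaf stage). After 13 to 15 days in a greenhouse, each species was visually compared with untreated controls and rated 0 (no effect) to 100 (complete control).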

[4] = tested on: windgrass (Apera spica-venti); assay: Test B postemergence plant response; conditions: for Windgrass plant response rating: 8 g ai/ha, postemergence, 0-100 scale; for Plant response rating, Windgrass: Postemergence
How it was run: as §2

[5] = tested on: canarygrass (Phalaris minor); assay: Test B postemergence plant response; conditions: for Canarygrass plant response rating: 8 g ai/ha, postemergence, 0-100 scale; for Plant response rating, Canarygrass: Postemergence
How it was run: as §2

[6] = tested on: chickweed (Stellaria media); assay: Test B postemergence plant response; conditions: for Chickweed plant response rating: 8 g ai/ha, postemergence, 0-100 scale; for Plant response rating, Chickweed: Postemergence
How it was run: as §2

[7] = tested on: giant foxtail (Setaria faberi); assay: Test A pre-/postemergence plant response
How it was run: (§3)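 Seeds sown in loam–sand blend; test chemicals in non-phytotoxic solvent with surfactant applied preemergence as directed soil spray and, concurrently, postemergence to plants 2–10 cm tall at one- to two-leaf stage. Greenhouse ~10 days, then visual injury rating vs untreated controls on 0–100 scale (0 = no effect, 100 = complete control).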

corn (Zea mays) = assay: Test A pre-/postemergence plant response
How it was run: as §3

[8] = tested on: velvetleaf (Abutilon theophrasti); assay: Test A pre-/postemergence plant response
How it was run: as §3

[9] = tested on: large crabgrass (Digitaria sanguinalis); assay: Test A pre-/postemergence plant response
How it was run: as §3

[10] = tested on: barnyardgrass (Echinochloa crus-galli); assay: Test A pre-/postemergence plant response
How it was run: as §3

[11] = tested on: morningglory (Ipomoea coccinea); assay: Test A pre-/postemergence plant response
How it was run: as §3

[12] = Postemergence, 16 g ai/ha, scale 0 to 100
[13] = Postemergence, 31 g ai/ha, scale 0 to 100, 0 no effect, 100 complete control
[14] = Postemergence, 62 g ai/ha, scale 0 to 100, 0 no effect, 100 complete control
[15] = Preemergence, 16 g ai/ha, scale 0 to 100 (0 no effect, 100 complete control)
[16] = Preemergence, 31 g ai/ha, scale 0 to 100 (0 no effect, 100 complete control)
[17] = Preemergence, 62 g ai/ha, scale 0 to 100
[18] = Preemergence, 62 g ai/ha, 0 to 100 scale, 0 no effect, 100 complete control
[19] = 62 g ai/ha, scale 0 to 100, 0 no effect, 100 complete control
[20] = 31 g ai/ha, scale 0 to 100, 0 no effect, 100 complete control
[21] = Postemergence, 31 g ai/ha, 0 to 100 scale, 0 no effect, 100 complete control
[22] = Postemergence, 125 g ai/ha, 0 to 100 scale, 0 no effect, 100 complete control
[23] = Preemergence, 31 g ai/ha, 0 to 100 scale, 0 is no effect, 100 is complete control
[24] = Preemergence, 125 g ai/ha, 0 to 100 scale (0 no effect, 100 complete control)

For `CCCc1cc(-c2ccc(Cl)cc2)nn1-c1c(O)cnn(C)c1=O` [Compound 43], the “Oat, Wild plant response rating” value (wild oat (Avena fatua); postemergence, 0-100 scale) was 95, the “Plant response rating, Oat, Wild” value (wild oat (Avena fatua); [12]) was 100 and the “Plant response rating, Oat, Wild” value (wild oat (Avena fatua); [13]) was 100. For the same molecule, the “Plant response rating, Oat, Wild” value (wild oat (Avena fatua); [14]) was 100, the “Plant response rating, Oat, Wild” value (wild oat (Avena fatua); [15]) was 90 and the “Plant response rating, Oat, Wild” value (wild oat (Avena fatua); [16]) was 95. The “Plant response rating, Oat, Wild” value (wild oat (Avena fatua); [17]) was 95, the “Oat, Wild plant response rating” value (wild oat (Avena fatua); Preemergence, scale 0 to 100) was 70 and the “Wheat plant response rating” value ([1]; postemergence, 0-100 scale) was 30. For the same molecule, the “Plant response rating, Wheat” value [1, 12] was 70, the “Plant response rating, Wheat” value [1, 14] was 100 and the “Plant response rating, Wheat” value [1, 15] was 10. The “Plant response rating, Wheat” value [1, 16] was 15, the “Plant response rating, Wheat” value [1, 18] was 80 and the “Wheat plant response rating” value ([1]; Preemergence, scale 0 to 100) was 0. For the same molecule, the “Nutsedge, Yellow plant response rating” value ([2]; postemergence, 0-100 scale) was 0, the “Plant response rating, Nutsedge, Yellow” value [2, 12] was 0 and the “Plant response rating, Nutsedge, Yellow” value [2, 13] was 0. The “Plant response rating, Nutsedge, Yellow” value [2, 14] was 0, the “Plant response rating, Nutsedge, Yellow” value [2, 15] was 0 and the “Plant response rating, Nutsedge, Yellow” value [2, 16] was 0. The “Plant response rating, Nutsedge, Yellow” value [2, 17] was 0, the “Nutsedge, Yellow plant response rating” value ([2]; Preemergence, scale 0 to 100) was 0 and the “Barley plant response rating” value [3] was 20. The “Plant response rating, Barley” value ([3]; 16 g ai/ha) was 50, the “Plant response rating, Barley” value ([3]; 62 g ai/ha) was 50 and the “Windgrass plant response rating” value [4] was 50. For the same molecule, the “Plant response rating, Windgrass” value ([4]; 16 g ai/ha, scale 0 to 100) was 70, the “Plant response rating, Windgrass” value [4, 19] was 100 and the “Canarygrass plant response rating” value [5] was 30. For the same molecule, the “Plant response rating, Canarygrass” value ([5]; 16 g ai/ha, scale 0 to 100) was 50, the “Plant response rating, Canarygrass” value [5, 20] was 50 and the “Plant response rating, Canarygrass” value [5, 19] was 95. For the same molecule, the “Chickweed plant response rating” value [6] was 0, the “Plant response rating, Chickweed” value ([6]; 16 g ai/ha, scale 0 to 100) was 0 and the “Plant response rating, Chickweed” value [6, 20] was 0. The “Plant response rating, Chickweed” value [6, 19] was 0, the “Plant response rating, Foxtail, Giant” value [7, 21] was 80 and the “Plant response rating, Foxtail, Giant” value [7, 22] was 100. For the same molecule, the “Plant response rating, Foxtail, Giant” value [7, 23] was 90, the “Plant response rating, Foxtail, Giant” value [7, 24] was 100 and the “Plant response rating, Corn” value (corn (Zea mays); [21]) was 50. For the same molecule, the “Plant response rating, Corn” value (corn (Zea mays); [22]) was 80, the “Plant response rating, Corn” value (corn (Zea mays); [23]) was 0 and the “Plant response rating, Corn” value (corn (Zea mays); [24]) was 90. The “Plant response rating, Velvetleaf” value [8, 21] was 0, the “Plant response rating, Velvetleaf” value [8, 22] was 0 and the “Plant response rating, Velvetleaf” value [8, 23] was 0. For the same molecule, the “Plant response rating, Velvetleaf” value [8, 24] was 0, the “Plant response rating, Crabgrass, Large” value [9, 21] was 40 and the “Plant response rating, Crabgrass, Large” value [9, 22] was 90. The “Plant response rating, Crabgrass, Large” value [9, 23] was 10, the “Plant response rating, Crabgrass, Large” value [9, 24] was 90 and the “Plant response rating, Barnyardgrass” value [10, 21] was 90. The “Plant response rating, Barnyardgrass” value [10, 22] was 100, the “Plant response rating, Barnyardgrass” value [10, 23] was 100 and the “Plant response rating, Barnyardgrass” value [10, 24] was 100. The “Plant response rating, Morningglory” value [11, 21] was 0, the “Plant response rating, Morningglory” value [11, 22] was 0 and the “Plant response rating, Morningglory” value [11, 23] was 0. The “Plant response rating, Morningglory” value [11, 24] was 0.

With `Cc1cc(-c2ccc(C(F)(F)F)c(F)c2)nn1-c1c(O)c(C(F)(F)F)nn(C)c1=O` [Compound 44] the “Oat, Wild plant response rating” value (wild oat (Avena fatua); postemergence, 0-100 scale) was 90, the “Plant response rating, Oat, Wild” value (wild oat (Avena fatua); [12]) was 95 and the “Plant response rating, Oat, Wild” value (wild oat (Avena fatua); [13]) was 100. The “Plant response rating, Oat, Wild” value (wild oat (Avena fatua); [14]) was 100, the “Plant response rating, Oat, Wild” value (wild oat (Avena fatua); [15]) was 80 and the “Plant response rating, Oat, Wild” value (wild oat (Avena fatua); [16]) was 85. The “Plant response rating, Oat, Wild” value (wild oat (Avena fatua); [17]) was 90, the “Oat, Wild plant response rating” value (wild oat (Avena fatua); Preemergence, scale 0 to 100) was 25 and the “Wheat plant response rating” value ([1]; postemergence, 0-100 scale) was 55. For the same molecule, the “Plant response rating, Wheat” value [1, 12] was 90, the “Plant response rating, Wheat” value [1, 14] was 95 and the “Plant response rating, Wheat” value [1, 15] was 0. For the same molecule, the “Plant response rating, Wheat” value [1, 16] was 10, the “Plant response rating, Wheat” value [1, 18] was 90 and the “Wheat plant response rating” value ([1]; Preemergence, scale 0 to 100) was 0. The “Nutsedge, Yellow plant response rating” value ([2]; postemergence, 0-100 scale) was 0, the “Plant response rating, Nutsedge, Yellow” value [2, 12] was 0 and the “Plant response rating, Nutsedge, Yellow” value [2, 13] was 0. The “Plant response rating, Nutsedge, Yellow” value [2, 14] was 0, the “Plant response rating, Nutsedge, Yellow” value [2, 15] was 0 and the “Plant response rating, Nutsedge, Yellow” value [2, 16] was 0. For the same molecule, the “Plant response rating, Nutsedge, Yellow” value [2, 17] was 0, the “Nutsedge, Yellow plant response rating” value ([2]; Preemergence, scale 0 to 100) was 0 and the “Barley plant response rating” value [3] was 15. The “Plant response rating, Barley” value ([3]; 16 g ai/ha) was 20, the “Plant response rating, Barley” value ([3]; 31 g ai/ha) was 20 and the “Plant response rating, Barley” value ([3]; 62 g ai/ha) was 20. For the same molecule, the “Windgrass plant response rating” value [4] was 85, the “Plant response rating, Windgrass” value ([4]; 16 g ai/ha, scale 0 to 100) was 85 and the “Plant response rating, Windgrass” value [4, 19] was 100. The “Canarygrass plant response rating” value [5] was 50, the “Plant response rating, Canarygrass” value ([5]; 16 g ai/ha, scale 0 to 100) was 90 and the “Plant response rating, Canarygrass” value [5, 20] was 90. For the same molecule, the “Chickweed plant response rating” value [6] was 0, the “Plant response rating, Chickweed” value ([6]; 16 g ai/ha, scale 0 to 100) was 0 and the “Plant response rating, Chickweed” value [6, 20] was 0. For the same molecule, the “Plant response rating, Chickweed” value [6, 19] was 0, the “Plant response rating, Foxtail, Giant” value [7, 21] was 90 and the “Plant response rating, Foxtail, Giant” value [7, 22] was 100. The “Plant response rating, Foxtail, Giant” value [7, 23] was 80, the “Plant response rating, Foxtail, Giant” value [7, 24] was 100 and the “Plant response rating, Corn” value (corn (Zea mays); [21]) was 70. For the same molecule, the “Plant response rating, Corn” value (corn (Zea mays); [22]) was 90, the “Plant response rating, Corn” value (corn (Zea mays); [23]) was 30 and the “Plant response rating, Corn” value (corn (Zea mays); [24]) was 80. The “Plant response rating, Velvetleaf” value [8, 21] was 0, the “Plant response rating, Velvetleaf” value [8, 22] was 0 and the “Plant response rating, Velvetleaf” value [8, 23] was 0. For the same molecule, the “Plant response rating, Velvetleaf” value [8, 24] was 0, the “Plant response rating, Crabgrass, Large” value [9, 21] was 50 and the “Plant response rating, Crabgrass, Large” value [9, 22] was 100. For the same molecule, the “Plant response rating, Crabgrass, Large” value [9, 23] was 20, the “Plant response rating, Crabgrass, Large” value [9, 24] was 100 and the “Plant response rating, Barnyardgrass” value [10, 21] was 100. The “Plant response rating, Barnyardgrass” value [10, 22] was 100, the “Plant response rating, Barnyardgrass” value [10, 23] was 80 and the “Plant response rating, Barnyardgrass” value [10, 24] was 100. For the same molecule, the “Plant response rating, Morningglory” value [11, 21] was 0, the “Plant response rating, Morningglory” value [11, 22] was 0 and the “Plant response rating, Morningglory” value [11, 23] was 0. For the same molecule, the “Plant response rating, Morningglory” value [11, 24] was 0.
